Counter-ions that a name gives are not always drawn.

This experiment concerns the target T1, human BCKDK (Homo sapiens, UniProt O14874).
T1 construct: human BCKDK (residues 31-412 of the protein pre-processing); 6xHis (N, cleaved yes); MBP (N, cleaved yes); TEV protease site (ENLYFQG) (N, cleaved yes); made in house; host or cells: BL21(DE3) E. coli, co-expressed with GroEL-GroES
Description: In Vitro FRET (TR-FRET) BCKDK activity assay, phosphorylation of BCKDHE1α-E2 fusion substrate. The format is biochemical. As to conditions: geometric mean, two significant figures; 15 μM ATP. Here is the method:
BCKDK protein was generated using a pET vector containing from N- to C-terminus: 6×His, MBP, a TEV protease site (ENLYFQG), a biotin acceptor peptide ([…]), and human BCKDK (residues 31-412 of the protein pre-processing). Protein was co-expressed with GroEL-GroES in BL21(DE3) E. coli in LB media, and protein production was induced with 0.5 mM IPTG and 0.5 mg/mL L-arabinose at an OD600 of 1 and grown for 16 h at 26° C. Bacteria were lysed using a Microfluidizer in 100 mM potassium phosphate pH 7.5, 500 mM NaCl, 0.1 mM EDTA, 1% Tween-20, 0.25% Triton X-100, 10% glycerol, 1 mM DTT, and protease inhibitors. MBP-tagged protein was purified by affinity chromatography using amylose resin, and MBP was removed from BCKDK by TEV protease incubation followed by gel filtration chromatography in 50 mM HEPES pH 7.5, 500 mM NaCl, 300 mM L-Arginine, 2 mM MgCl2, 1 mM DTT, and 10% glycerol.
A pET vector containing E. coli LplA was expressed in BL21(DE3) E. coli in LB media, and protein production was induced with 0.75 mM IPTG at an OD600 of 1 and grown for 16 h at 30° C. Bacteria were lysed using a Microfluidizer in 50 mM sodium phosphate buffer pH 7.5, 350 mM NaCl, 1.5 mM MgCl2, and 1 mM DTT. LplA protein was precipitated from clarified lysate with 1 M ammonium sulfate and further purified by gel filtration chromatography in 50 mM sodium phosphate pH 7.5, 350 mM NaCl, 1.5 mM MgCl2, 1 mM DTT, and 10% glycerol.
The BCKDHE1α-E2 fusion substrate was cloned into a pET vector and contained from N- to C-terminus: the lipoyl binding domain of E2 (residues 62-160 pre-processing), a TEV protease site (LENLYFQG), residues 331-345 (pre-processing) from E1α, and 6×His (Tso, S. C. et al., J Biol Chem 2014, 289 (30), 20583-20593). The fusion substrate was expressed in BL21(DE3) E. coli in LB media, and protein production was induced with 0.75 mM IPTG at an OD600 of 1 and grown for 16 h at 30° C. Bacteria were lysed using a Microfluidizer in 50 mM sodium phosphate pH 7.5, 350 mM NaCl, 10 mM imidazole, 10% glycerol, 1 mM DTT, and protease inhibitors. […] For lipoylation, fusion substrate was incubated with LplA at a 10:1 (substrate:LplA) ratio in 20 mM sodium phosphate pH 7.4, 6 mM MgCl2, 4 mM ATP, 2 mM DTT, 3 mM DL-6,8-thioctic acid at 37° C. The reaction was monitored using an Agilent 6530 Q-TOF coupled to an Agilent 1290 UPLC. The final lipoylated fusion substrate was purified by gel filtration chromatography in 50 mM HEPES pH 7.5, 350 mM NaCl, 1.5 mM MgCl2, 1 mM DTT, 10% glycerol.
BCKDK activity was monitored by phosphorylation of a HIS-tagged fusion BCKDHE1α-E2 substrate protein as described above and was detected using a time resolved-fluorescence resonance energy transfer (TR-FRET) assay system. Compounds were spotted into a 384 well plate, and purified human BCKDK protein was added to the plated compound. After incubation, the LBD-linker-E1 phosphorylation sequence was added in the presence of 15 μM ATP. The reaction was terminated with EDTA. Phosphorylated substrate was recognized by the addition of rabbit anti-E1 phospho Ser293 antibodies (Bethyl Laboratories—A304-672A), and the TR-FRET signal was developed by addition of anti-HIS donor molecules (Europium; Perkin Elmer—AD0205, AD0110, AD0111) and anti-Rabbit acceptor molecules (Ulight; Perkin Elmer—TRF502D, TRF502M, TRF502R). Recognition of phosphorylated E1 brought donor and acceptor molecules into close proximity, and excitation at 320 nm caused energy transfer from the Europium donor to the Ulight acceptor dye, which in turn generated light at 665 nm. Signal intensity was proportional to the level of BCKDK-mediated substrate phosphorylation. Reactions were normalized to zero percent effect with DMSO and one hundred percent effect with 600 μM Radicicol, a known BCKDK inhibitor. IC50 curves were generated using ABASE software (IDBS, Boston Mass.).
In general terms: Time-resolved FRET reads energy transfer from a long-lived donor to a nearby acceptor.

As for `Cc1cc(F)sc1-c1nnn[nH]1` [Example 2, 5-(5-Fluoro-3-methylthiophen-2-yl)-1H-tetrazole], the IC50 was 3.6 µM. That is a single-digit micromolar value.

As to `CCc1c(Cl)csc1-c1nnn[nH]1` [Example 3, 5-(4-Chloro-3-ethylthiophen-2-yl)-1H-tetrazole, ammonium salt], the IC50 turned out to be 1.1 µM.

`CCc1c(Br)csc1-c1nnn[nH]1` [Example 4, 5-(4-Bromo-3-ethylthiophen-2-yl)-1H-tetrazole, ammonium salt] had an IC50 of 1.1 µM.

In turn, `FC(F)c1ccsc1-c1nnn[nH]1` [Example 5, 5-[3-(Difluoromethyl)thiophen-2-yl]-1H-tetrazole] displayed an IC50 of 2.5 µM.

`FC(F)c1cc(Cl)sc1-c1nnn[nH]1` [Example 6, 5-[5-Chloro-3-(difluoromethyl)thiophen-2-yl]-1H-tetrazole] came in with an IC50 of 1.1 µM.

Compound `Clc1ccsc1-c1nnn[nH]1` [Example 7, 5-(3-chlorothiophen-2-yl)-1H-tetrazole] registered an IC50 of 11 µM.

For the compound `Clc1cc(Br)sc1-c1nnn[nH]1` [Example 8, 5-(5-Bromo-3-chlorothiophen-2-yl)-1H-tetrazole], the IC50 turned out to be 3.4 µM.

Compound `Cc1c(-c2nnn[nH]2)sc(Cl)c1F` [Example 10, 5-(5-Chloro-4-fluoro-3-methylthiophen-2-yl)-1H-tetrazole] came in with an IC50 of 0.81 µM.

Regarding `Cc1c(-c2nnn[nH]2)sc(Cl)c1Cl` [Example 11, 5-(4,5-Dichloro-3-methylthiophen-2-yl)-1H-tetrazole], the IC50 came out at 1.9 µM.

In the case of `Clc1cc(Cl)c(-c2nnn[nH]2)s1` [Example 12, 5-(3,5-Dichlorothiophen-2-yl)-1H-tetrazole, ammonium salt], the midpoint of inhibition, the IC50, lay at 2 µM.

On to `CCc1cc(Br)c(-c2nnn[nH]2)s1` [Example 13, 5-(3-Bromo-5-ethylthiophen-2-yl)-1H-tetrazole], for which the IC50 was > 83 µM.

`Cc1cc(Cl)c(-c2nnn[nH]2)s1` [Example 14, 5-(3-chloro-5-methylthiophen-2-yl)-1H-tetrazole]: half-maximal inhibition (IC50) required 2.6 µM.

In turn, `Oc1cc(Br)sc1-c1nnn[nH]1` [Example 15, 5-bromo-2-(1H-tetrazol-5-yl)thiophene-3-ol] yielded an IC50 of 13 µM.

For the compound `COc1cc(Br)sc1-c1nnn[nH]1` [Example 16, 5-(5-bromo-3-methoxythiophen-2-yl)-1H-tetrazole], 4.5 µM corresponded to half-maximal inhibition (IC50).

As for `Brc1csc(-c2nnn[nH]2)c1Br` [Example 17, 5-(3,4-dibromothiophen-2-yl)-1H-tetrazole], the IC50 is 6.1 µM.

Compound `Cc1c(-c2nnn[nH]2)sc(Br)c1Br` [Example 18, 5-(4,5-dibromo-3-methylthiophen-2-yl)-1H-tetrazole] displayed an IC50 of 4.5 µM.

`Clc1cc(Br)c(-c2nnn[nH]2)s1` [Example 19, 5-(3-bromo-5-chlorothiophen-2-yl)-1H-tetrazole] returned an IC50 of 4.1 µM.

For the compound `Cc1cc(C(F)(F)F)sc1-c1nnn[nH]1` [Example 20, 5-[3-methyl-5-(trifluoromethyl)thiophen-2-yl]-1H-tetrazole], the 50% inhibitory concentration (IC50) was 3.7 µM.

For `Cc1cc(C(F)F)sc1-c1nnn[nH]1` [Example 21, 5-[5-(difluoromethyl)-3-methylthiophen-2-yl]-1H-tetrazole], the IC50 was determined as 3.6 µM.

Turning to `FC(F)(F)c1ccsc1-c1nnn[nH]1` [Example 22, 5-[3-(trifluoromethyl)thiophen-2-yl]-1H-tetrazole], it took 11 µM to reach half-maximal inhibition (IC50).

Compound `FC(F)(F)c1cc(Cl)sc1-c1nnn[nH]1` [Example 23, 5-[5-chloro-3-(trifluoromethyl)thiophen-2-yl]-1H-tetrazole] came in with a concentration for half-maximal inhibition (IC50) of 7.2 µM.

As to `COc1ccsc1-c1nnn[nH]1` [Example 24, 5-(3-methoxythiophen-2-yl)-1H-tetrazole], the IC50 was > 300 µM.

Consider `CCc1ccsc1-c1nnn[nH]1` [Example 25, 5-(3-ethylthiophen-2-yl)-1H-tetrazole], for which 9.8 µM corresponded to half-maximal inhibition (IC50).

For the compound `c1cc(C2CC2)c(-c2nnn[nH]2)s1` [Example 26, 5-(3-cyclopropylthiophen-2-yl)-1H-tetrazole], the IC50 was > 300 µM.

`CCc1cc(Cl)sc1-c1nnn[nH]1` [Example 27, 5-(5-chloro-3-ethylthiophen-2-yl)-1H-tetrazole] had an IC50 of 4 µM.

As for `Fc1ccsc1-c1nnn[nH]1` [Example 28, 5-(3-fluorothiophen-2-yl)-1H-tetrazole], the IC50 was found to be 16 µM.

Regarding `Clc1cc(C2CC2)c(-c2nnn[nH]2)s1` [Example 29, 5-(5-chloro-3-cyclopropylthiophen-2-yl)-1H-tetrazole], the IC50 amounted to 10 µM.

`Fc1cc(Cl)sc1-c1nnn[nH]1` [Example 30, 5-(5-chloro-3-fluorothiophen-2-yl)-1H-tetrazole] registered a concentration for half-maximal inhibition (IC50) of 2.9 µM.

In turn, `Fc1cc(Cl)c(-c2nnn[nH]2)s1` [Example 31, 5-(3-chloro-5-fluorothiophen-2-yl)-1H-tetrazole] registered an IC50 of 3.6 µM.

For the compound `CCc1cc(C)c(-c2nnn[nH]2)s1` [Example 32, 5-(5-ethyl-3-methylthiophen-2-yl)-1H-tetrazole], the IC50 was found to be 15 µM.

`Cc1cc(Br)sc1-c1nnn[nH]1` [Example 33, 5-(5-bromo-3-methylthiophen-2-yl)-1H-tetrazole] displayed a 50% inhibitory concentration (IC50) of 3.1 µM. This IC50 lies about 4.8-fold lower than the previous one.

Compound `Fc1cc(Br)c(-c2nnn[nH]2)s1` [Example 34, 5-(3-bromo-5-fluorothiophen-2-yl)-1H-tetrazole] showed an IC50 of 2.7 µM.

In turn, `Brc1ccsc1-c1nnn[nH]1` [Example 35, 5-(3-bromothiophen-2-yl)-1H-tetrazole] yielded an IC50 of 1.4 µM.

With `Cc1ccsc1-c1nnn[nH]1` [Example 36, 5-(3-methylthiophen-2-yl)-1H-tetrazole], the IC50 amounted to 6 µM.

`Oc1ccsc1-c1nnn[nH]1` [Example 37, 2-(1H-tetrazol-5-yl)thiophene-3-ol] gave an IC50 of 13 µM.

The IC50 is the point on the concentration scale where inhibition reaches its midpoint. Low readings indicate higher potency, high ones lower potency.

For the origin of these results see US20220363673A1, “5-(Thiophen-2-YL)-1 H-Tetrazole Derivative as BCKDK Inhibitors Useful for Treating Various Diseases” (Pfizer Inc., priority 2019, published 2022).
